Earlier results, collected in patent US12435094B1, “Methods of preparing isomers, analogs, and synthetic derivatives from akuamma seeds” (priority 2024, dated 2025).

How the values were obtained:
[1] = molecular target: mu opioid receptor (μOR) (Homo sapiens, UniProt P35372); conditions: background statement, no data shown
[2] = tested on: animal models of antinociception; conditions: background statement, no data shown

Sequence of mu opioid receptor (μOR) (P35372 whole entry, species assumed): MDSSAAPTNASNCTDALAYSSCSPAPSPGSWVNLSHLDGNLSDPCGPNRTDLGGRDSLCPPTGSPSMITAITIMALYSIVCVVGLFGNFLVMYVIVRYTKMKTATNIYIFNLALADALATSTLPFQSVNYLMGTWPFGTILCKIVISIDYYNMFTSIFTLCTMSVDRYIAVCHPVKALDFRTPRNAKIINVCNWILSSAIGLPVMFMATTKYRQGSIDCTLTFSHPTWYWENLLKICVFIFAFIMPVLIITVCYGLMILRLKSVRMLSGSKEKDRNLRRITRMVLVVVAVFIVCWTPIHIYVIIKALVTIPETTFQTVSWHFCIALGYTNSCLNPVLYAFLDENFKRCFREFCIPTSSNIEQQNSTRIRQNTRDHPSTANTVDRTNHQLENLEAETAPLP

| Molecule | agonism of the mu opioid receptor (μOR) [1] | effects in animal models of antinociception [2] |
| --- | --- | --- |
| C/C=C1/CN2CC[C@@]34c5ccccc5N(C)[C@]35OCC4(C(=O)OC)[C@@H]1C[C@H]25 [pseudoakuammigine, Pseudoakuammigine] | weak agonists | minimal effects |
| Akuammine | weak agonists | minimal effects |
